Results on four compounds are retold here after patent publication US11090324B2, “Composition, for remedying female climacteric syndrome symptoms, comprising tectorigenin 7-O-Xylosylglucoside” (LG Household & Health Care Ltd., priority 2017, dated 2021).

Data set [1] has as its system ovariectomy (OVX) female Sprague-Dawley rats. The data set can be described thus: Serum CTX level (bone resorption marker) in ovariectomized rats, ELISA. Format: in vivo, rat. The note with it: for CTX: serum, 8 weeks, sham 42.3, OVX control 78.2. The method, then:
11-12 week-old female Sprague-Dawley rats were subjected to sham operation (group 1, n=10) or ovariectomy (OVX) (groups 2-8, n=10 per each group). After a week from the operation, 0.01 mL of a sample per body weight (g) of each rat was administered orally every day for 4 weeks. 17β-Estradiol (E2) was administered to the positive control group and a 1:5:5 mixture of the three compounds tectorigenin, tectoridin and tectorigenin 7-O-xylosylglucoside was administered to the test groups. 4 weeks after the administration, the skin temperature at 2 cm where the tail starts was measured using an infrared thermometer. [table] In order to measure CTX (C-terminal telopeptide of type I collagen), which is a marker related with bone resorption, the same rats as in Example 2 were orally administered with a sample for 8 weeks and then serum was collected. The CTX level in the serum was measured using the rat C-telopeptide of type I collagen ELISA kit (MyBioSource) according to the manufacturer's instructions.
(In general: ELISA stands for enzyme-linked immunosorbent assay.)

For data set [2] the test system is unchanged. The data set can be described thus: Tail skin temperature of ovariectomized rats (vasomotor symptoms). Format: in vivo, rat. The following applies: oral 4 weeks, mixture 5 and 10 mg/kg/day, single compounds 10 mg/kg/day. The source says:
It is known that 75% of […] women experience vasomotor symptoms. Facial flushing (hot flush) is the representative symptom where the skin on face, neck and chest is reddened abruptly, accompanied by unpleasant flushing and sweating. The change in the vasomotor symptoms can be evaluated by measuring the change in skin temperature. In an animal experiment, it can be measure by the skin temperature of the rat tail (Guidelines for evaluation of health functional food, ‘Helpful for health of […] women’, National Institute of Food and Drug Safety Evaluation). 11-12 week-old female Sprague-Dawley rats were subjected to sham operation (group 1, n=10) or ovariectomy (OVX) (groups 2-8, n=10 per each group). After a week from the operation, 0.01 mL of a sample per body weight (g) of each rat was administered orally every day for 4 weeks. 17β-Estradiol (E2) was administered to the positive control group and a 1:5:5 mixture of the three compounds tectorigenin, tectoridin and tectorigenin 7-O-xylosylglucoside was administered to the test groups. 4 weeks after the administration, the skin temperature at 2 cm where the tail starts was measured using an infrared thermometer. [table]

In a further data set the test system is estrogen receptors. The data set can be described thus: ERE (estrogen response element) reporter assay. It is filed as cell-based. The following applies: sum of the concentrations of the three compounds 10 ppm; with respect to negative control group (1.0). The method, then:
ERE (estrogen response element) reporter assay was performed to investigate the activity of the three compounds tectorigenin 7-O-xylosylglucoside, tectorigenin and tectoridin for estrogen receptors. Tectorigenin, tectoridin and tectorigenin 7-O-xylosylglucoside were treated at ratios described in Table 1 (the sum of the concentrations of the three compounds was 10 ppm).

Compound `C[C@]12CC[C@@H]3c4ccc(O)cc4CC[C@H]3[C@@H]1CC[C@@H]2O` [17β-estradiol (E2), 17β-Estradiol, reference compound] had a CTX in data set [1] (0.5 mg/kg/day oral) of 52.6 ng/mL.
`COc1c(O[C@@H]2O[C@H](CO)[C@@H](O)[C@H](O)[C@H]2O)cc2occ(-c3ccc(O)cc3)c(=O)c2c1O` [Tectoridin, tectoridin] showed a CTX in data set [1] (10 mg/kg/day oral) of 70.4 ng/mL.
For the compound `COc1c(O[C@@H]2O[C@H](CO[C@@H]3OC[C@@H](O)[C@H](O)[C@H]3O)[C@@H](O)[C@H](O)[C@H]2O)cc2occ(-c3ccc(O)cc3)c(=O)c2c1O` [Tectorigenin 7-O-xylosylglucoside, tectorigenin 7-O-xylosylglucoside], in data set [1] (oral 8 weeks, compared to the OVX group or to tectorigenin and tectoridin), the “Effect on CTX level / bone resorption (in words)” value is reported as “most inhibited bone resorption”. The compound also displayed a CTX in data set [1] (10 mg/kg/day oral) of 58.4 ng/mL. Also, the “Effect on increase in tail temperature caused by estrogen deficiency (in words)” value in data set [2] is on record as “best effect of suppressing increase in the tail temperature”. For the same compound, the “Activity for estrogen receptors Fold induction” value in the data set on estrogen receptors stood at 34 fold.
`COc1c(O)cc2occ(-c3ccc(O)cc3)c(=O)c2c1O` [Tectorigenin, tectorigenin] came in with a CTX in data set [1] (10 mg/kg/day oral) of 71.5 ng/mL.
